We go through 4 compounds from ChEMBL document CHEMBL3994622, “Design and synthesis of new RAF kinase-inhibiting antiproliferative quinoline derivatives. Part 2: Diarylurea derivatives” (Eur J Med Chem, 2017).

Assay type in all cases: functional
One test concerns EKVX. Put plainly: Growth inhibition of human EKVX cells assessed as cell growth at 0.01 uM incubated for 48 hrs by sulforhodamine B assay relative to control. The note with it: read-out: Activity. In general terms: The SRB assay estimates cell density from bound dye.
The next test relates to SK-MEL-2. Put plainly: Growth inhibition of human SK-MEL-2 cells assessed as cell growth at 0.01 uM incubated for 48 hrs by sulforhodamine B assay relative to control. The note with it: SK-MEL-2, 48 h, read-out: Activity.
Test [1] relates to SK-MEL-28. Put plainly: Growth inhibition of human SK-MEL-28 cells assessed as cell growth at 0.01 uM incubated for 48 hrs by sulforhodamine B assay relative to control. The note with it: SK-MEL-28, 48 h, read-out: Activity.
The test system of test [2] is UACC-257. Put plainly: Growth inhibition of human UACC257 cells assessed as cell growth at 0.01 uM incubated for 48 hrs by sulforhodamine B assay relative to control. The following applies: UACC-257, 48 h, read-out: Activity.
The next test has as its system RXF 393. Put plainly: Growth inhibition of human RXF393 cells assessed as cell growth at 0.01 uM incubated for 48 hrs by sulforhodamine B assay relative to control. The note with it: RXF 393, 48 h, read-out: Activity.
Test [3] deals with HL-60(TB). Put plainly: Growth inhibition of human HL-60(TB) cells assessed as cell growth at 0.1 uM incubated for 48 hrs by sulforhodamine B assay relative to control. The following applies: HL-60, 48 h, read-out: Activity.
For a further test, the system named is K562. Put plainly: Growth inhibition of human K562 cells assessed as cell growth at 0.1 uM incubated for 48 hrs by sulforhodamine B assay relative to control. The note with it: K562, 48 h, read-out: Activity.
In test [4] the test system is SK-MEL-28. Put plainly: Growth inhibition of human SK-MEL-28 cells assessed as cell growth at 0.1 uM incubated for 48 hrs by sulforhodamine B assay relative to control. The note with it: SK-MEL-28, 48 h, read-out: Activity.
In test [5] the test system is PC-3. Put plainly: Growth inhibition of human PC3 cells assessed as cell growth at 0.1 uM incubated for 48 hrs by sulforhodamine B assay relative to control. The note with it: PC-3, 48 h, read-out: Activity.
The test system of test [6] is MDA-MB-231. Put plainly: Growth inhibition of human MDA-MB-231 cells assessed as cell growth at 0.1 uM incubated for 48 hrs by sulforhodamine B assay relative to control. The following applies: MDA-MB-231, 48 h, read-out: Activity.
Another test has as its system MOLT-4. Put plainly: Growth inhibition of human MOLT4 cells assessed as cell growth at 1 uM incubated for 48 hrs by sulforhodamine B assay relative to control. The following applies: MOLT-4, 48 h, read-out: Activity.
A further test concerns SF-268. Put plainly: Growth inhibition of human SF268 cells assessed as cell growth at 1 uM incubated for 48 hrs by sulforhodamine B assay relative to control. The following applies: SF-268, 48 h, read-out: Activity.
A further test relates to Malme-3M. Put plainly: Growth inhibition of human MALME-3M cells assessed as cell growth at 1 uM incubated for 48 hrs by sulforhodamine B assay relative to control. The following applies: read-out: Activity.
The subject of test [7] is SW-620. Put plainly: Growth inhibition of human SW620 cells assessed as cell growth at 10 uM incubated for 48 hrs by sulforhodamine B assay relative to control. The following applies: SW-620, 48 h, read-out: Activity.
Test [8] concerns UACC-257. Put plainly: Growth inhibition of human UACC257 cells assessed as cell growth at 10 uM incubated for 48 hrs by sulforhodamine B assay relative to control. The note with it: UACC-257, 48 h, read-out: Activity.
Test [9] deals with PC-3. Put plainly: Growth inhibition of human PC3 cells assessed as cell growth at 10 uM incubated for 48 hrs by sulforhodamine B assay relative to control. The following applies: PC-3, 48 h, read-out: Activity.
Test [10] concerns HL-60(TB). Put plainly: Growth inhibition of human HL-60(TB) cells assessed as cell growth at 100 uM incubated for 48 hrs by sulforhodamine B assay relative to control. The note with it: HL-60, 48 h, read-out: Activity.
The subject of another test is NCI-H460. Put plainly: Growth inhibition of human NCI-H460 cells assessed as cell growth at 100 uM incubated for 48 hrs by sulforhodamine B assay relative to control. The following applies: NCI-H460, 48 h, read-out: Activity.
For a further test, the system named is KM12. Put plainly: Growth inhibition of human KM12 cells assessed as cell growth at 100 uM incubated for 48 hrs by sulforhodamine B assay relative to control. The note with it: KM12, 48 h, read-out: Activity.
For test [11], the system named is MCF7. Put plainly: Growth inhibition of human MCF7 cells assessed as cell growth at 100 uM incubated for 48 hrs by sulforhodamine B assay relative to control. The following applies: MCF7, 48 h, read-out: Activity.
In another test the test system is NCI-H23. Put plainly: Growth inhibition of human NCI-H23 cells assessed as cell growth at 0.003 uM incubated for 48 hrs by sulforhodamine B assay relative to control. The note with it: NCI-H23, 48 h, read-out: Activity.
In another test the test system is COLO 205. Put plainly: Growth inhibition of human COLO205 cells assessed as cell growth at 0.003 uM incubated for 48 hrs by sulforhodamine B assay relative to control. The note with it: COLO 205, 48 h, read-out: Activity.
In the next test the test system is SN12C. Put plainly: Growth inhibition of human SN12C cells assessed as cell growth at 0.003 uM incubated for 48 hrs by sulforhodamine B assay relative to control. The note with it: read-out: Activity.
Another test concerns UO-31. Put plainly: Growth inhibition of human UO31 cells assessed as cell growth at 0.003 uM incubated for 48 hrs by sulforhodamine B assay relative to control. The following applies: UO-31, 48 h, read-out: Activity.
Test [12] deals with MCF7. Put plainly: Growth inhibition of human MCF7 cells assessed as cell growth at 0.03 uM incubated for 48 hrs by sulforhodamine B assay relative to control. The note with it: MCF7, 48 h, read-out: Activity.
Another test concerns OVCAR-5. Put plainly: Growth inhibition of human OVCAR5 cells assessed as cell growth at 0.3 uM incubated for 48 hrs by sulforhodamine B assay relative to control. The following applies: OVCAR-5, 48 h, read-out: Activity.
The subject of the next test is CAKI-1. Put plainly: Growth inhibition of human Caki1 cells assessed as cell growth at 0.3 uM incubated for 48 hrs by sulforhodamine B assay relative to control. The note with it: CAKI-1, 48 h, read-out: Activity.
Test [13] concerns MDA-MB-231. Put plainly: Growth inhibition of human MDA-MB-231 cells assessed as cell growth at 0.3 uM incubated for 48 hrs by sulforhodamine B assay relative to control. The following applies: MDA-MB-231, 48 h, read-out: Activity.
The test system of test [14] is BT-549. Put plainly: Growth inhibition of human BT549 cells assessed as cell growth at 0.3 uM incubated for 48 hrs by sulforhodamine B assay relative to control. The following applies: BT-549, 48 h, read-out: Activity.
Test [15] has as its system BT-549. Put plainly: Growth inhibition of human BT549 cells assessed as cell growth at 3 uM incubated for 48 hrs by sulforhodamine B assay relative to control. The following applies: BT-549, 48 h, read-out: Activity.
In a further test the test system is A549. Put plainly: Growth inhibition of human A549/ATCC cells assessed as cell growth at 30 uM incubated for 48 hrs by sulforhodamine B assay relative to control. The note with it: A549, 48 h, read-out: Activity.
The test system of test [16] is SW-620. Put plainly: Growth inhibition of human SW620 cells assessed as cell growth at 30 uM incubated for 48 hrs by sulforhodamine B assay relative to control. The following applies: SW-620, 48 h, read-out: Activity.
The next test relates to UACC-62. Put plainly: Growth inhibition of human UACC62 cells assessed as cell growth at 30 uM incubated for 48 hrs by sulforhodamine B assay relative to control. The note with it: UACC-62, 48 h, read-out: Activity.
In another test the test system is A498. Put plainly: Growth inhibition of human A498 cells assessed as cell growth at 30 uM incubated for 48 hrs by sulforhodamine B assay relative to control. The note with it: A498, 48 h, read-out: Activity.

Turning to `COc1cc2cc(Oc3ccc(NC(=O)Nc4cc(C(F)(F)F)cc(C(F)(F)F)c4)cc3)c(C)nc2cc1OC`, the growth at 0.01 µM stood at 89% with EKVX; 106% with SK-MEL-2; 91% in the test with SK-MEL-28 [1]; 104% in the test on UACC-257 [2]; 100% in the test on RXF 393. Moreover, the growth at 0.1 µM with HL-60(TB) [3] was 84%; in the test with K562 it was 108%; with SK-MEL-28 [4] it was 102%; in the test with PC-3 [5], 89%; in the test on MDA-MB-231 [6], 98%. Further, the growth at 1 µM turned out to be 55% in the test with MOLT-4, 79% with SF-268 and 54% with Malme-3M. The growth at 10 µM was -26% in the test on SW-620 [7], -38% in the test on UACC-257 [8] and -41% with PC-3 [9]. Also, the growth at 100 µM is -56% with HL-60(TB) [10], -73% with NCI-H460, -74% in the test on KM12 and -73% in the test on MCF7 [11].
As for `Cc1nc2cc(O)c(O)cc2cc1Oc1ccc(NC(=O)Nc2ccc(Cl)c(Cl)c2)cc1`, the growth at 0.003 µM with NCI-H23 was 96%; in the test on COLO 205 it was 107%; in the test on SN12C, 100%; in the test with UO-31 it was 91%. The growth at 0.03 µM with MCF7 [12] was found to be 89%. The growth at 0.3 µM with OVCAR-5 was 106%; in the test on CAKI-1 it was 95%; with MDA-MB-231 [13], 118%; with BT-549 [14], 92%. The growth at 3 µM in the test with BT-549 [15] came to 78%. Moreover, the growth at 30 µM is -10% in the test with A549, 16% in the test on SW-620 [16], -78% with UACC-62 and 75% in the test with A498.
As to `COc1cc2cc(Oc3ccc(NC(=O)Nc4ccc(Cl)c(Cl)c4)cc3)c(C)nc2cc1OC`, the growth at 0.01 µM turned out to be 94% in the test with EKVX; 116% in the test on SK-MEL-2; 101% in the test on SK-MEL-28 [1]; 97% in the test on UACC-257 [2]; 106% in the test with RXF 393. Also, the growth at 0.1 µM with HL-60(TB) [3] is 109%; in the test on K562, 107%; in the test on SK-MEL-28 [4], 91%; in the test with PC-3 [5], 95%; in the test on MDA-MB-231 [6], 92%. In addition, the growth at 1 µM was 90% in the test on MOLT-4, 110% in the test on SF-268 and 109% in the test on Malme-3M. In addition, the values for the growth at 10 µM with SW-620 [7], in the test on UACC-257 [8] and with PC-3 [9] were 16%, -23% and -28%, respectively. The growth at 100 µM is -41% in the test on HL-60(TB) [10], -76% in the test with NCI-H460, -58% in the test on KM12 and -50% in the test with MCF7 [11].
In the case of `COc1cc2cc(Oc3ccc(NC(=O)Nc4ccc(Cl)c(C(F)(F)F)c4)cc3)c(C)nc2cc1OC`, the growth at 0.003 µM with NCI-H23 was 97%; in the test with COLO 205, 97%; with SN12C, 98%; in the test with UO-31, 87%. Further, in the test with MCF7 [12], the growth at 0.03 µM came out at 97%. Also, the growth at 0.3 µM is 113% in the test with OVCAR-5, 87% in the test on CAKI-1, 87% in the test on MDA-MB-231 [13] and 85% in the test on BT-549 [14]. Also, in the test on BT-549 [15], the growth at 3 µM amounted to 12%. For the same compound, the growth at 30 µM is -80% in the test on A549, -87% in the test with SW-620 [16], -75% in the test on UACC-62 and -98% in the test on A498.
